Assay results reported in patent publication US20060025394A1, “Estradiol-related compounds and methods of use as anti-tumor agents” (priority 2003, published 2006).

Key:
Assay type in all cases: cell-based
[1] = tested on: LNCaP; test: MTS cell viability assay in LNCaP
Method: DU145, LNCaP, PC3, and MCF-7 cells were obtained from the American Type Culture Collection (Manassas, Va.). DU145, PC3, and MCF-7 cells were maintained in Dulbecco's modified Eagle's medium/F-12 supplemented with 5% heat inactivated Fetal Calf Serum and Penicillin/Streptomycin (Invitrogen Life Technologies, Carlsbad, Calif.). LNCaP cells were maintained in RPMI 1640 medium supplemented in the same fashion. Cells were cultured in 75 cm^2 flasks (Falcon, BD Biosciences, Bedford, Mass.) at 37° C. and 5% CO2. […]
Cell viability assays were carried out with five logs of concentration between 0.1 nM and […] for APVE2, including controls in three prostate cancer cell lines (DU145, LNCaP, and PC3, and in a breast cancer cell line (MCF-7). Upon completing five days of treatment, the medium in each well was exchanged for 400 μL of an MTS solution (3-(4,5-dimethylthiazol-2-yl)-5-(3-carboxymethoxyphenyl)-2-(4-sulfophenyl)-2H-tetrazolium, inner salt; O'Toole SA, 2003, Cancer Detect Prev., 2003;27(1):47-54) spiked into media as per the manufacture's instructions (Promega, Madison, Wis.) and incubated for 2 hours at 37° C. before reading the absorbance on the μQuant UV/VIS plate reader, in conjunction with KCjunior Software (Bio-Tek Instruments, Winooski, Vt.) set at 490 nm. […] EC50 values were calculated with GraphPad Prism software (GraphPad Software Inc., San Diego, Calif.).

[2] = tested on: DU145 cells; test: Flow cytometry cell cycle analysis; conditions: 16 nM
Method: The cells were trypsinized for five minutes, scraped, washed in serum containing media, centrifuged at 300 rpm for 10 minutes, and fixed in ice-cold 70% ethanol for 24 hours at −20° C. The cells were again pelleted and resuspended in buffer containing nine parts 0.05M Na2HPO4 and one part 25 mM citric acid with 0.1% Triton X-100 (pH 7.8) for 2 hours. Cells were pelleted, resuspended in a buffer ([…], 0.1 N NaCl, 2 mM MgCl2, and 0.1% Triton X-100) containing 20 μg PI and 50 μg/ml RNAse (pH 6.8), and incubated in the dark at room temperature for 30 minutes. Cell cycle distribution and DNA content analysis were assayed according to standard methods with a FACS sorter, FACScan™ flow cytometer (Becton Dickinson, Mountain View, Calif.), and analyzed by the Cell Cycle Multi-Cycle system (Phoenix Flow System, San Diego, Calif.). Approximately 15,000 single events were collected, and cell-cycle distribution was determined using Modfit LT version 2 software (Verity House, Inc., Topsham, Me.). All analyses were carried out in quadruplicate.

[3] = tested on: DU145 cells; test: Annexin-V-FITC/PI apoptosis assay; conditions: 16 nM, 4th and 5th days
Method: Apoptosis was assessed with the annexin-V-FITC apoptosis detection kit (Oncogene Research Products, Boston, Mass.) as per the manufacturer's instructions with E2 and camptothecin (Calbiochem, San Diego, Calif.) as negative and positive controls respectively. Briefly, cells were lifted at the appropriate time points as described above and pelleted. Cells were then resuspended in ice cold binding buffer, and doubly stained with Annexin-V-fluorescein isothiocyanate and propidium iodide (PI) and analyzed within two hours on the FACScan™ flow cytometer (Becton Dickinson) and the Cell Cycle Multi-Cycle system (Phoenix Flow System).

[4] = tested on: MCF-7; test: Cytotoxicity testing (Example 7), MTS, MCF-7; conditions: Table 3, five days, 1 mM of each compound, defined media
Method: Cytotoxicity Studies were done in DU-145 and MCF-7 Cells. […] We set out to test the efficacy of these compounds based on known affinities for ER-α previously reported. Cells were treated for five days with 1 mM of each compound in a defined media. Cell number was estimated by the MTS method. Similar studies were carried out in the MCF-7 cell line known to express both ER-α and -β, and display proliferative properties in the presence of classic estrogens.

## C[C@]12CC[C@@H]3c4ccc(O)cc4CC[C@H]3[C@@H]1CC[C@@]2(O)/C=C\c1ccc(N)cc1 [APVE2, 17α-20Z-21-[(4-amino)phenyl]-19-norpregna-1,3,5(10),20-tetraene-3,17β-diol]
[1]; 5 days of treatment at 1 μM
  decrease in cell number: 69±2.3%
[1]; Homo sapiens, 120 h, five day treatment, read-out: EC50 (cell death, MTS)
  EC50: 1.4 nM
[2]
  increase in G2/M accumulation: over 4 fold
[2]; day 2-3
  G1/G0 phase, compared to non-treated controls: 135%
[2]; day 3
  G2/M, compared to non-treated controls: no change
  S phase, decrease to, compared to non-treated controls: 32%
[2]; day 4
  G1/G0, decrease to, over non-treated controls: 48%
  S phase, over non-treated controls: 73%
[2]; day 4-5
  G2/M arrest, over non-treated controls: 420%
[2]; four to five days
  loss of G1: over 48%
[2]; second and third day
  loss in S phase: up to 68%
[3]
  cells staining heavily with both dyes (late stage apoptosis): approximately 76%
[4]
  MCF-7 % Cell#: 25%
